Measured values from patent publication US20240228506A1, “RIPK1 INHIBITORS AND METHODS OF USE” (Merck Sharp & Dohme LLC, priority 2021, published 2024).

What follows are compounds tested against T1, GST-RIPK1 (recombinant GST-RIPK1 kinase domain (residues 1-327)) (Homo sapiens, UniProt Q13546) (assay: RIPK1-ADP-Glo enzymatic assay). Conditions: 25 nM GST-RIPK1, 300 μM ATP, 3 μM dephosphorylated-MBP; 30 minutes pre-incubation, 150 minutes reaction; ten-point titration.
T1 construct: recombinant GST-RIPK1 kinase domain (residues 1-327) enzyme; made in house; host or cells: baculovirus-transfected Sf21 insect cells
T1 sequence (Q13546 1-327): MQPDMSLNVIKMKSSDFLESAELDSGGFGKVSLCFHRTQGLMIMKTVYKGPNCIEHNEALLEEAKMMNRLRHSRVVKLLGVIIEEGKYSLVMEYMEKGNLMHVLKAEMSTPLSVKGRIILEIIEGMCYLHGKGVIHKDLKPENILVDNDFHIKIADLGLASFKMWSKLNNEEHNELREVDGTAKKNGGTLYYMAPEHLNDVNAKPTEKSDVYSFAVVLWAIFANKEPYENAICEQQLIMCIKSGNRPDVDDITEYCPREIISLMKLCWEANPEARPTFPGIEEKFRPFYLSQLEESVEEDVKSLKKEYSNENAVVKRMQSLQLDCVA
Assay type: biochemical
How it was run: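 Ten-point 1:3 titrations from 100000 nM, 1% DMSO, were preincubated 30 min with 25 nM GST-RIPK1 (1-327) before starting with 300 μM ATP plus 3 μM dephosphorylated MBP; 150 min reaction. ADP-Glo luminescence measured ATP-to-ADP conversion; EC50 by four-parameter sigmoidal regression.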

SMILES	IC50
CC(C)(C(=O)N1C[C@@H]2C[C@H]1c1cncc(F)c1O2)C(F)F [Compound 2-1, 3,3-Difluoro-1-((2S,5S)-9-fluoro-2,3-dihydro-2,5-methanopyrido[3,4-f][1,4]oxazepin-4(5H)-yl)-2,2-dimethylpropan-1-one]	184 nM
COC1(C(=O)N2C[C@@H]3C[C@H]2c2cncc(C#N)c2O3)CCCC1 [Compound 1-65, (2S,5S)-4-(1-methoxycyclopentane-1-carbonyl)-2,3,4,5-tetrahydro-2,5-methanopyrido[3,4-f][1,4]oxazepine-9-carbonitrile]	76 nM
CCC(C)(OC)C(=O)N1C[C@@H]2C[C@H]1c1cncc(C#N)c1O2 (single isomer, unassigned) [Compound 1-17, (2S,5S)-4-[2(S or R)-methoxy-2-methylbutanoyl]-2,3,4,5-tetrahydro-2,5-methanopyrido[3,4-f][1,4]oxazepine-9-carbonitrile]	24 nM
Cc1cncc2c1O[C@H]1C[C@@H]2N(C(=O)C(C)(C)C)C1 [Compound 2-13, 2,2-dimethyl-1-((2S,5S)-9-methyl-2,3-dihydro-2,5-methanopyrido[3,4-f][1,4]oxazepin-4(5H)-yl)propan-1-one]	1100 nM
C#Cc1cncc2c1O[C@H]1C[C@@H]2N(C(=O)C(C)(C)C(F)F)C1 [Compound 2-32, 1-((2S,5S)-9-Ethynyl-2,3-dihydro-2,5-methanopyrido[3,4-f][1,4]oxazepin-4(5H)-yl)-3,3-difluoro-2,2-dimethylpropan-1-one]	167 nM
N#Cc1cncc2c1O[C@H]1C[C@@H]2N(C(=O)C23CCC(CC2)CC3)C1 [Compound 1-61, (2S,5S)-4-(bicyclo[2.2.2]octane-1-carbonyl)-2,3,4,5-tetrahydro-2,5-methanopyrido[3,4-f][1,4]oxazepine-9-carbonitrile]	34 nM
CC(F)(F)C(C)(C)C(=O)N1C[C@@H]2C[C@H]1c1cncc(C#N)c1O2 [Compound 1-10, (2S,5S)-4-(3,3-difluoro-2,2-dimethylbutanoyl)-2,3,4,5-tetrahydro-2,5-methanopyrido[3,4-f][1,4]oxazepine-9-carbonitrile]	21 nM
COC12CCC(C(=O)N3C[C@@H]4C[C@H]3c3cncc(C#N)c3O4)(CC1)C2 [Compound 1-97, (2S,5S)-4-(4-methoxybicyclo[2.2.1]heptane-1-carbonyl)-2,3,4,5-tetrahydro-2,5-methanopyrido[3,4-f][1,4]oxazepine-9-carbonitrile]	92 nM
N#Cc1cncc2c1O[C@H]1C[C@@H]2N(C(=O)C23CC(C(F)(F)F)(CO2)C3)C1 [Compound 1-66, (2S,5S)-4-(4-(trifluoromethyl)-2-oxabicyclo[2.1.1]hexane-1-carbonyl)-2,3,4,5-tetrahydro-2,5-methanopyrido[3,4-f][1,4]oxazepine-9-carbonitrile]	514 nM
O=C(N1C[C@@H]2C[C@H]1c1cncc(F)c1O2)C12CCC(F)(CC1)CC2 [Compound 2-15, ((2S,5S)-9-fluoro-2,3-dihydro-2,5-methanopyrido[3,4-f][1,4]oxazepin-4(5H)-yl)(4-fluorobicyclo[2.2.2]octan-1-yl)methanone]	81 nM
CC(C)C1(C(=O)N2C[C@@H]3C[C@H]2c2cncc(C#N)c2O3)CC1 [Compound 1-79, (2S,5S)-4-(1-isopropylcyclopropane-1-carbonyl)-2,3,4,5-tetrahydro-2,5-methanopyrido[3,4-f][1,4]oxazepine-9-carbonitrile]	446 nM
N#Cc1cncc2c1O[C@H]1C[C@@H]2N(C(=O)C2(F)CCN(C(=O)c3ccccc3)CC2)C1 [Compound 1-54, (2S,5S)-4-(1-benzoyl-4-fluoropiperidine-4-carbonyl)-2,3,4,5-tetrahydro-2,5-methanopyrido[3,4-f][1,4]oxazepine-9-carbonitrile]	116 nM
C=CC(C)(C)C(=O)N1C[C@@H]2C[C@H]1c1cncc(C#N)c1O2 [Compound 1-95, (2S,5S)-4-(2,2-dimethylbut-3-enoyl)-2,3,4,5-tetrahydro-2,5-methanopyrido[3,4-f][1,4]oxazepine-9-carbonitrile]	30 nM
CC1(C(=O)N2C[C@@H]3C[C@H]2c2cncc(C#N)c2O3)CCC1 [Compound 1-12, (2S,5S)-4-(1-methylcyclobutane-1-carbonyl)-2,3,4,5-tetrahydro-2,5-methanopyrido[3,4-f][1,4]oxazepine-9-carbonitrile]	47 nM
N#Cc1cncc2c1O[C@H]1C[C@@H]2N(C(=O)C23CCCC2C3(F)F)C1 (stereo partly drawn) [Compound 1-81, (2S,5S)-4-(6,6-difluorobicyclo[3.1.0]hexane-1-carbonyl)-2,3,4,5-tetrahydro-2,5-methanopyrido[3,4-f][1,4]oxazepine-9-carbonitrile]	93 nM
CC1(C(=O)N2C[C@@H]3C[C@H]2c2cncc(C#N)c2O3)Cc2cccc(Cl)c21 (single isomer, unassigned) [Compound 1-37, (2S,5S)-4-(5-chloro-7(R or S)-methylbicyclo[4.2.0]octa-1,3,5-triene-7-carbonyl)-2,3,4,5-tetrahydro-2,5-methanopyrido[3,4-f][1,4]oxazepine-9-carbonitrile]	136 nM

Next, values leading:

IC50	SMILES
22 nM	CC(C)(C(=O)N1C[C@@H]2C[C@H]1c1cncc(C#Cc3cnc4c(Cl)cnn4c3)c1O2)C(F)F [Compound 2-81, 1-((2S,5S)-9-((3-chloropyrazolo[1,5-a]pyrimidin-6-yl)ethynyl)-2,3-dihydro-2,5-methanopyrido[3,4-f][1,4]oxazepin-4(5H)-yl)-3,3-difluoro-2,2-dimethylpropan-1-one]
32 nM	CC(C)(C(=O)N1C[C@@H]2C[C@H]1c1cncc(C#Cc3ccc(C#N)nc3)c1O2)C(F)F [Compound 2-87, 5-(((2S,5S)-4-(3,3-difluoro-2,2-dimethylpropanoyl)-2,3,4,5-tetrahydro-2,5-methanopyrido[3,4-f][1,4]oxazepin-9-yl)ethynyl)picolinonitrile]
22 nM	O=C(N1C[C@@H]2C[C@H]1c1cncc(C#Cc3cnccn3)c1O2)C12CCC(C(F)(F)F)(CC1)C2 [Compound 2-61, ((2S,5S)-9-(pyrazin-2-ylethynyl)-2,3-dihydro-2,5-methanopyrido[3,4-f][1,4]oxazepin-4(5H)-yl)(4-(trifluoromethyl)bicyclo [2.2.1]heptan-1-yl)methanone]
47 nM	CC(C)(C)C(=O)N1C[C@@H]2C[C@H]1c1cncc(C#Cc3ccc(OC(F)(F)F)cc3)c1O2 [Compound 2-37, 2,2-dimethyl-1-((2S,5S)-9-((4-(trifluoromethoxy)phenyl)ethynyl)-2,3-dihydro-2,5-methanopyrido[3,4-f][1,4]oxazepin-4(5H)-yl)propan-1-one]
163 nM	CC(C)(C)CCC#Cc1cncc2c1O[C@H]1C[C@@H]2N(C(=O)C(C)(C)C(F)F)C1 [Compound 2-108, 1-((2S,5S)-9-(5,5-dimethylhex-1-yn-1-yl)-2,3-dihydro-2,5-methanopyrido[3,4-f][1,4]oxazepin-4(5H)-yl)-3,3-difluoro-2,2-dimethylpropan-1-one]
48 nM	CC(C)(C(=O)N1C[C@@H]2C[C@H]1c1cncc(C#Cc3ccc(F)cc3F)c1O2)C(F)F [Compound 2-43, 1-((2S,5S)-9-((2,4-difluorophenyl)ethynyl)-2,3-dihydro-2,5-methanopyrido[3,4-f][1,4]oxazepin-4(5H)-yl)-3,3-difluoro-2,2-dimethylpropan-1-one]
36 nM	Cc1ncc(C#Cc2cncc3c2O[C@H]2C[C@@H]3N(C(=O)C(C)(C)C(F)F)C2)c(C)n1 [Compound 2-95, 1-((2S,5S)-9-((2,4-dimethylpyrimidin-5-yl)ethynyl)-2,3-dihydro-2,5-methanopyrido[3,4-f][1,4]oxazepin-4(5H)-yl)-3,3-difluoro-2,2-dimethylpropan-1-one]
17 nM	Cc1ccc(C#Cc2cncc3c2O[C@H]2C[C@@H]3N(C(=O)C34CCC(C(F)(F)F)(CC3)C4)C2)cn1 [Compound 2-62]
34 nM	CC(C)(C(=O)N1C[C@@H]2C[C@H]1c1cncc(C#Cc3cncc(C(F)(F)F)c3)c1O2)C(F)F [Compound 2-89, 3,3-difluoro-2,2-dimethyl-1-((2S,5S)-9-((5-(trifluoromethyl)pyridin-3-yl)ethynyl)-2,3-dihydro-2,5-methanopyrido[3,4-f][1,4]oxazepin-4(5H)-yl)propan-1-one]
24 nM	CC(C)(C(=O)N1C[C@@H]2C[C@H]1c1cncc(C#N)c1S2)C(F)F [Compound 4-1, (2S,5S)-4-(3,3-difluoro-2,2-dimethylpropanoyl)-2,3,4,5-tetrahydro-2,5-methanopyrido[3,4-f][1,4]thiazepine-9-carbonitrile]
16 nM	O=C(N1C[C@@H]2C[C@H]1c1cncc(C#Cc3ccccc3)c1O2)C12CCC(C(F)(F)F)(CC1)C2 [Compound 2-64, ((2S,5S)-9-(phenylethynyl)-2,3-dihydro-2,5-methanopyrido[3,4-f][1,4]oxazepin-4(5H)-yl)(4-(trifluoromethyl)bicyclo [2.2.1]heptan-1-yl)methanone]
1230 nM	Cc1ncc2c(n1)O[C@H]1C[C@@H]2N(C(=O)C23CCC(F)(CC2)C3)C1 [Compound 3-4, (4-fluorobicyclo[2.2.1]heptan-1-yl)((5S,8S)-2-methyl-7,8-dihydro-5,8-methanopyrimido[5,4-f][1,4]oxazepin-6(5H)-yl)methanone]
